Entries after “also recorded” stand apart in the source; their conditions may differ.
What was measured:
CCI-SN rats [1] = test: Randall-Selitto test in CCI-SN rats; type: in vivo, rat; settings: 10 mg/kg i.p., acute
Description: (§1) Rats are anaesthetized with sodium pentobarbital (50 mg/kg i.p.). Unilateral CCI-SN is performed under direct visual control using a Zeiss microscope (10-25×) essentially as described by Bennett and Xie (G. J. Bennett et al., Pain, 33 (1988) 87-107).
Pain is produced by applying increasing pressure (0-450 g/mm^2) with a punch (0.2 mm tip diameter) on the rat's hind paw. The measured value to be determined is the pressure at which either a hindpaw withdrawal response or a vocalisation reaction of the animal occurs.
Tapentadol (10 mg/kg i.p.) or its vehicle (0.9% NaCl i. p.) was injected in CCI-SN rats acutely 14 days after surgery. Pressure threshold values to trigger hindpaw withdrawal (A) or vocalization (B) were determined using the Randall-Selitto test at various times after acute i.p. administration (Time=0) of Tapentadol or saline.
The results are summarized and depicted in FIG. 1 (A and B). Each point is the mean±S.E.M. of 3-4 independent determinations. * P<0.05 compared to pressure threshold values in the same rats before surgery (C on abscissa); Dunnett's test.

CCI-SN rats [2] = type: in vivo, rat
Description: as §1
Mechanical sensitivity is determined with a graded series of von Frey filaments (Bioseb, Bordeaux, France; bending force: 0.07-60.0 g). The stimuli are applied within the SN territory (midplantar surface of the left hindpaw) three times at the nerve-injured side (ipsilateral, left) and then at the contralateral side for a total of 6 applications of each filament per rat, always beginning with the filament producing the lowest force. The von Frey filaments are applied at least 3 seconds after the rats returned to their initial resting state. For each session, the complete series of von Frey filaments is tested in increasing force order. The minimal force filament causing a hindpaw withdrawal response allows determination of the mechanical response threshold. The 60 g filament is the cut-off threshold.
For studying the effects of acute treatment with tapentadol in CCI-SN rats, tapentadol (1, 3 and 10 mg/kg i.p.) or its vehicle (0.9% NaCl i. p.) was injected acutely 14 days after surgery. Sham-operated rats were treated in parallel. Pressure threshold values to trigger nocifensive responses to von Frey filaments application onto the plantar surface of ipsilateral hindpaw were determined at various times after acute injection of tapentadol or saline. Cut-off was fixed at 60 g pressure.
For studying the effects of subchronic treatment with tapentadol in CCI-SN rats, starting on day 16 (Time=D) after surgery, they received i.p. injections of tapentadol (10 mg/kg, twice daily, at 10:00 AM and 6:00 PM) or saline (at the same day times as the drug) for four days. On the following day (day 20 after surgery), both tapentadol- and saline-pretreated CCI-SN rats were i.p. injected with Tapentadol (10 mg/kg; Time=0) and then subjected to von Frey filaments'test applied to ipsilateral hindpaw for determination of pressure threshold values at various times thereafter.
In a second part of this study (B), unilateral chronic constriction injury to the sciatic nerve was performed two weeks before acute treatment with reboxetine (10 mg/kg i.p.), tapentadol (10 mg/kg i.p.) or saline (0.5 ml i.p./rat). Pressure threshold values were then determined at various times using von Frey filaments test applied to ipsilateral hindpaw.
Morphine (1, 3 and 10 mg/kg s.c.) or its vehicle (0.9% NaCl) was injected acutely 14 days after CCI-SN surgery. Sham-operated rats were treated in parallel. Pressure threshold values to trigger nocifensive responses to von Frey filaments application onto the plantar surface of ipsilateral hindpaw were determined at various times after acute injection of morphine or saline.
14 days after CCI-SN surgery, rats were injected with reboxetine (10 mg/kg i.p.) or its vehicle (0.9% NaCl) followed, 15 min later, by morphine (1 mg/kg s.c.) or its vehicle (0.9% NaCl) and subjected to von Frey filament tests for the following 4 hours. Sham-operated rats were treated in parallel.
The results are depicted in FIG. 11.

In the case of `CC[C@@H](c1cccc(O)c1)[C@@H](C)CN(C)C` [tapentadol, (−)-(1R,2R)-3-(3-dimethylamino-1-ethyl-2-methyl-propyl)-phenol], the “duration of the increase in pressure threshold values (hindpaw withdrawal and vocalization)” value (CCI-SN rats [1]; 14 days after surgery) was “at least 60 min”, the “pressure threshold values to trigger vocalization relative to untreated healthy rats” value (CCI-SN rats [1]; first 45 min after administration) was “+20%” and the “pressure threshold values to cause hindpaw withdrawal compared to intact healthy rats before surgery” value (CCI-SN rats [1]; first hour after treatment) was “did not significantly differ from those determined in intact healthy rats”. The “increase in pressure threshold value” (CCI-SN rats [2]; 1 mg/kg i.p., acute, first 15-30 min after injection, non significant) was “approximately 40%”, the “effect on pressure threshold values” (CCI-SN rats [2]; 3 mg/kg i.p., acute) was “increased pressure threshold values, but to a lower extent than 10 mg/kg i.p” and the “anti-allodynic effect of last administration after subchronic pretreatment (sensitization/desensitization)” value (CCI-SN rats [2]; 10 mg/kg i.p. twice daily for four days or saline, then 10 mg/kg i.p. on day 20) was “produced the same anti-allodynic effects in saline-pretreated and tapentadol-pretreated rats; also recorded: neither in CCI-SN rats nor in those with CCI-ION, any sign of sensitization or desensitization”. For the same compound, the “pressure threshold values compared to healthy control values” (CCI-SN rats [2]; 10 mg/kg i.p., acute, 15-30 min after administration) was “no longer differed from healthy control values”, the “mechanical allodynia compared to saline-treated CCI-SN rats” value (CCI-SN rats [2]; 10 mg/kg i.p., acute, 90 min after injection) was “did not significantly differ from that measured in saline-treated CCI-SN rats” and the “pressure threshold values after the last injection under subchronic treatment” value (CCI-SN rats [2]; 10 mg/kg i.p., first 45 min after last injection) was “markedly increased pressure threshold values”. The “dose dependence of anti-allodynic effect” value (CCI-SN rats [2]; 1-10 mg/kg i.p. dose range, acute) was “clear dose-dependent anti-allodynic effect”.
